Data: patent US5952368A, “5-aroylpyrrol-2-ylmethylarene derivatives” (Syntex (U.S.A.) Inc., priority 1997, dated 1999)
Like-named read-outs stand apart in the source and are kept apart here.

Legend:
COX I = biological target: T1, COX I (Homo sapiens, UniProt P23219); assay: Inhibition of COX I in vitro (radiometric assay, 14C arachidonic acid, partially purified enzyme); assay type: biochemical
T1 construct: made in house; baculovirus-infected insect cells by own knowledge of the cited Barnett et al. 1994
Protocol: (§1) The COX I and COX II inhibitory activity of compounds of this invention in vitro was determined using partially purified COX I and COX II enzymes, prepared as described in J. Barnett et al., Biochim. Biophys. Acta, 1209:130--139 (1994).
(§2) COX I and COX II samples were diluted with Tris-HCl buffer (50 mM Tris-HCl pH 7.9) containing 2 mM EDTA and 10% glycerol and reconstituted by incubating first with 2 mM phenol for 5 minutes and then with 1 micromolar hematin for an additional 5 minutes. 125 μl of the reconstituted COX I or COX II enzyme were preincubated for 10 minutes at room temperature in a shaking water bath with the compounds of the invention dissolved in 2-15 μl of DMSO or the carrier vehicles (control samples). The enzyme reaction was initiated by adding 25 μl of 1-[14C] arachidonic acid (80,000-100,000 cpm/tube; 20 micromolar final concentration) and the reaction was allowed to continue for an additional 45 seconds. The reaction was terminated by adding 100 μl of 2N HCl and 750 μl water. An aliquot (950 μl) of the reaction mixture was loaded onto a 1 ml C18 Sep-Pak column (J. T. Baker, Phillipsburg, N.J.) which had been previously washed with 2-3 ml methanol and equilibrated with 5-6 ml distilled water. Oxygenated products were quantitatively eluted with 3 ml of acetonitrile/water/acetic acid (50:50:0.1, v/v) and the radioactivity in the eluate determined in a scintillation counter.

COX II = biological target: T2, COX II (Homo sapiens, UniProt P35354); assay: Inhibition of COX II in vitro (radiometric assay, 14C arachidonic acid, partially purified enzyme); assay type: biochemical
T2 construct: made in house; baculovirus-infected insect cells by own knowledge of the cited Barnett et al. 1994
T2 sequence (P35354 18-604): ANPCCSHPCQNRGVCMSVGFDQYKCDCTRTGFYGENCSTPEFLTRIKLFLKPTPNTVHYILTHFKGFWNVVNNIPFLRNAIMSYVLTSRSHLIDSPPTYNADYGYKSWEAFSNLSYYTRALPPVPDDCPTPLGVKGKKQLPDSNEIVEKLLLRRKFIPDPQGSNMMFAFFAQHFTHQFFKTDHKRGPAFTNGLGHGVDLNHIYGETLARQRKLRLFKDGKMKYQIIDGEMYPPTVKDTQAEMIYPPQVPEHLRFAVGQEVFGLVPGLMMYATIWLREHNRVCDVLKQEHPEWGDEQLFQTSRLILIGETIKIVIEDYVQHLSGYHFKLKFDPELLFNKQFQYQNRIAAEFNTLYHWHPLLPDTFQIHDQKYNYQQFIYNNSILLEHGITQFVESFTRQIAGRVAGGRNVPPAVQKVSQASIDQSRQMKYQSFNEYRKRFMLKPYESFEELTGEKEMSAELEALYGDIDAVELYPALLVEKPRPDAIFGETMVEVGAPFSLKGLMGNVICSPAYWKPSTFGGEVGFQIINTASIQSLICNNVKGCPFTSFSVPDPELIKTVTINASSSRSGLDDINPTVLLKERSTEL
Protocol: as §1, §2

air pouch PGE2 formation = assay: Inhibition of eicosanoid (PGE2) synthesis in vivo: carrageenan air-pouch model in rats; design: species or system rat; details: 30 mg/Kg, oral, male rats, 6 hr
Protocol: In this assay, an air-pouch is created in the rat and the PGE2 levels in the air-pouch exudate are measured by enzyme immunoassay. Briefly, male rats were anesthetized using a 60:40 CO2 :O2 mixture and subsequently injected subcutaneously with 20 ml of sterilized air, under aseptic conditions, in the proximal area of the dorsum. This injection of sterile air causes the creation of a subcutaneous "air pouch". The next day, a further 10 ml of sterile air was injected into the previously formed pouch using the same technique. […] Control rats received vehicle alone. After 30 minutes, 5 ml of a 0.5% solution of carrageenan (Sigma, Lambda Type IV) was injected into the air pouch. The rats were euthanized 3 or 6 h after the compound administration. […] The total exudate volume was recorded, and the samples were analyzed for PGE2 and 6-keto PGF1 by ELISA (Titerzyme®, PerSeptive Diagnostics) and TxB2 by radioimmuno assay (New England Nuclear Research, Catalog No. NEK-037), according to the manufacturer's directions.
The mean concentrations of PGE2 were calculated for each group. The anti-inflammatory activity of test materials is expressed as the percent inhibition of PGE2 formation in the test group relative to the control group.

[1] = partially purified COX I, 20 micromolar arachidonic acid, 10 min preincubation, room temperature, read-out: COX I IC50
[2] = partially purified COX II, 20 micromolar arachidonic acid, 10 min preincubation, room temperature, read-out: COX II IC50

T1 sequence (P23219 24-599): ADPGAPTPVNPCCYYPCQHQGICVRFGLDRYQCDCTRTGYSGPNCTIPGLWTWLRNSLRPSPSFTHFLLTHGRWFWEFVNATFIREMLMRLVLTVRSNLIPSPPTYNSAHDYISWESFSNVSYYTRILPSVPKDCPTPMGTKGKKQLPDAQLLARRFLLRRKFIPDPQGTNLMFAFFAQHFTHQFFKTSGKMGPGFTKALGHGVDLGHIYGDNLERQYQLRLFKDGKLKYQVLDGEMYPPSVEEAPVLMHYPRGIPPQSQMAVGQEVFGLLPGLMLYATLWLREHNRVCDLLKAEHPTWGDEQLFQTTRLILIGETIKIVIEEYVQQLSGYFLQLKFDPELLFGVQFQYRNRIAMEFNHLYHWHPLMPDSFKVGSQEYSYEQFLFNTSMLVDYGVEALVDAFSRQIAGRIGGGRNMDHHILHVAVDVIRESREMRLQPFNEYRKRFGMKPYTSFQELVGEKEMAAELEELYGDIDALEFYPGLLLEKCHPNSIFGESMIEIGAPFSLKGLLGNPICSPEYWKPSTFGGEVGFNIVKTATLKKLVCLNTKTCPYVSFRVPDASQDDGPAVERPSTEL

Compound | IC50 (COX I; [1]) [µM] | IC50 (COX II; [2]) [µM] | % Inhibition of air pouch PGE2 formation (air pouch PGE2 formation) [%] | IC50 (COX I) [µM] | IC50 (COX II) [µM]
CNS(=O)(=O)Nc1ccc(Cc2cc(C)c(C(=O)c3ccc(F)cc3)n2C)c(F)c1 [compound 206, 1-{3-Fluoro-4-[5-(4-fluorobenzoyl)-1,4-dimethyl-1H-pyrrol-2-ylmethyl]phenyl}-3-methylsulfamide] | 0.46 | 0.24 |  |  | 
NS(=O)(=O)Nc1ccc(C2CCn3c(C(=O)c4ccccc4)ccc32)c(Cl)c1 (centres unmarked) [compound 222, 1-{3-Chloro-4-[5-benzoyl-1,2-dihydro-3H-pyrrolizin-1-yl]phenyl}sulfamide] | 0.46 | 0.074 |  |  | 
COc1ccc(C(=O)c2ccc3n2CCC3c2ccc(NS(N)(=O)=O)cc2Cl)cc1 (centres unmarked) [compound 223, 1-{3-Chloro-4-[5-(4-methoxybenzoyl)-1,2-dihydro-3H-pyrrolizin-1-yl]phenyl}sulfamide] | 0.064 | 0.029 |  |  | 
Cc1cc(Cc2ccc(NC(=O)N(C)C)cc2)n(C)c1C(=O)c1ccc(Cl)cc1 [compound 226, 1-{1,4-[5-(4-Chlorobenzoyl)-1,4-dimethyl-1H-pyrrol-2-ylmethyl]phenyl}-3,3-dimethylurea] | 100 | 2.1 |  |  | 
Cc1cc(Cc2ccc(NC(=O)Nc3ccccc3)cc2)n(C)c1C(=O)c1ccc(Cl)cc1 [compound 227, 1-{1,4-[5-(4-Chlorobenzoyl)-1,4-dimethyl-1H-pyrrol-2-ylmethyl]phenyl}-3-phenylurea] | 2.5 | 0.1 |  |  | 
Cc1cc(Cc2ccc(NC(=O)Nc3cccc(Cl)c3)cc2)n(C)c1C(=O)c1ccc(Cl)cc1 [compound 228, 1-{4-[5-(4-Chlorobenzoyl)-1,4-dimethyl-1H-pyrrol-2-ylmethyl]phenyl}-3-(3-chlorophenyl)-urea] | 8.5 | 0.1 |  |  | 
CCNC(=S)Nc1ccc(Cc2cc(C)c(C(=O)c3ccc(Cl)cc3)n2C)cc1 [compound 235] | 8.2 | 0.17 |  |  | 
CNC(=S)Nc1ccc(Cc2cc(C)c(C(=O)c3ccc(Cl)cc3)n2C)cc1 [compound 236] | 15 | 0.51 | 71 |  | 
Cc1cc(Cc2ccc(NC(=O)CF)cc2)n(C)c1C(=O)c1ccc(Cl)cc1 [compound 243, N-{4-[5-(4-Chlorobenzoyl)-1,4-dimethyl-1H-pyrrol-2-ylmethyl]phenyl}fluoroacetamide] |  |  |  | 100 | 8.9
Cc1cc(Cc2ccc(N)cc2)n(C)c1C(=O)c1ccc(Cl)cc1 [compound 250, 4-[5-(4-Chlorobenzoyl)-1,4-dimethyl-1H-pyrrol-2-ylmethyl]aniline] | 34 | 27.4 |  |  | 
CSc1ccc(C(=O)c2c(C)cc(Cc3ccc(N)cc3F)n2C)cc1 [compound 251, 3-Fluoro-4-[5-(4-methylthiobenzoyl)-1,4-dimethyl-1H-pyrrol-2-ylmethyl]aniline] | 310 | 0.64 |  |  | 
Cc1cc(Cc2ccc(NS(=O)(=O)CCO)cn2)n(C)c1C(=O)c1ccc(Cl)cc1 [compound 267, N-{2-[5-(4-Chlorobenzoyl)-1,4-dimethyl-1H-pyrrol-2-ylmethyl]pyridin-5-yl}-2-(hydroxy)ethanesulfonamide] | 210 | 0.7 |  |  | 
Cc1ccc(C(=O)c2ccc(Cc3ncc(NS(C)(=O)=O)cc3Cl)n2C)cc1 [compound 276, N-{3-Chloro-2-[5-(4-methylbenzoyl)-1-methyl-1H-pyrrol-2-ylmethyl]pyridin-5-yl}-methanesulfonamide] | 60 | 0.5 |  |  | 
COc1ccc(C(=O)c2c(C)cc(Cc3ccc(NS(C)(=O)=O)cn3)n2C)cc1 [compound 289, N-{2-[5-(4-Methoxybenzoyl)-1,4-dimethyl-1H-pyrrol-2-ylmethyl]pyridin-5-yl}-methanesulfonamide] | 10.2 | 1.5 |  |  | 
Cc1cc(Cc2ccc(NS(=O)(=O)N(C)C)cn2)n(C)c1C(=O)c1ccccc1 [compound 294, 1-{2-[5-Benzoyl-1,4-dimethyl-1H-pyrrol-2-ylmethyl]pyridin-5-yl}-3,3-dimethylsulfamide] | 9.1 | 2.6 |  |  | 
Cc1cc(Cc2ccc(NS(N)(=O)=O)cn2)n(C)c1C(=O)c1ccccc1 [compound 295, 1-{2-[5-benzoyl-1,4-dimethyl-1H-pyrrol-2-ylmethyl]pyridin-5-yl}sulfamide] | 0.6 | 0.1 |  |  | 
CSc1ccc(C(=O)c2c(C)cc(Cc3ccc(NS(=O)(=O)N(C)C)cn3)n2C)cc1 [compound 296, 1-{2-[5-(4-Methylthiobenzoyl)-1,4-dimethyl-1H-pyrrol-2-ylmethyl]pyridin-5-yl}-3,3-di-methylsulfamide] | 0.21 | 0.4 |  |  | 
COc1ccc(C(=O)c2ccc(Cc3ccc(NS(N)(=O)=O)cn3)n2C)cc1 [compound 306, 1-{2-[5-(4-Methoxybenzoyl)-1-methyl-1H-pyrrol-2-ylmethyl]pyridin-5-yl}sulfamide] | 113 | 0.64 |  |  | 
Cc1cc(Cc2ccc(NC(=O)N(C)C)cn2)n(C)c1C(=O)c1ccc(Cl)cc1 [compound 308, 1-{2-[5-(4-Chlorobenzoyl)-1,4-dimethyl-1H-pyrrol-2-ylmethyl]pyridin-5-yl}-3,3-di-methylurea] | 650 | 8.75 |  |  | 
Cc1cc(Cc2ccc(NC(=O)NCCCl)cn2)n(C)c1C(=O)c1ccc(Cl)cc1 [compound 310, 1-{2-[5-(4-Chlorobenzoyl)-1,4-dimethyl-1H-pyrrol-2-ylmethyl]pyridin-5-yl}-3-(2-chloro-ethyl)urea] | 142 | 9.2 |  |  | 
CCNC(=S)Nc1ccc(Cc2cc(C)c(C(=O)c3ccc(Cl)cc3)n2C)nc1 [compound 314, 1-{2-[5-(4-Chlorobenzoyl)-1,4-dimethyl-1H-pyrrol-2-ylmethyl]pyridin-5-yl}-3-ethyl-2-thiourea] | 65 | 0.56 |  |  | 
Cc1cc(Cc2ccc(NC(=S)Nc3ccccc3)cn2)n(C)c1C(=O)c1ccc(Cl)cc1 [compound 316, 1-{2-[5-(4-Chlorobenzoyl)-1,4-dimethyl-1H-pyrrol-2-ylmethyl]pyridin-5-yl}-3-phenyl-2-thiourea] | 360 | 0.2 |  |  | 
CC(=O)Nc1ccc(Cc2cc(C)c(C(=O)c3ccc(Cl)cc3)n2C)nc1 [compound 329, N-{2-[5-(4-Chlorobenzoyl)-1,4-dimethyl-1H-pyrrol-2-ylmethyl]pyridin-5-yl}acetamide] | 256 | 43.7 |  |  | 
Cc1cc(Cc2ccc(NC=O)cn2)n(C)c1C(=O)c1ccc(Cl)cc1 [compound 330, N-{2-[5-(4-Chlorobenzoyl)-1,4-dimethyl-1H-pyrrol-2-ylmethyl]pyridin-5-yl}formamide] | 61.1 | 30 |  |  | 
Cc1cc(Cc2ccc(NS(C)(=O)=O)cc2F)n(C)c1C(=O)c1cccs1 [compound 340, N-{3-Fluoro-4-[5-(2-thenoyl)-1,4-dimethyl-1H-pyrrol-2-ylmethyl]phenyl}-methanesulfonamide] | 0.02 | 0.06 |  |  | 
N-{2-[5-(4-Methylbenzoyl)-1,4-dimethyl-1H-pyrrol-2-ylmethyl]pyridin-5-yl}- 2-(hydroxy)-ethanesulfonamide hydrochloride [compound 272] | > 1000 | 2.1 |  |  | 
